# Reference: publication PMC3265452 (PLoS Neglected Tropical Diseases, 2012)
# Counter-ions that a name gives are not always drawn.
# Molecular target: AaDOP2 (Aedes aegypti, UniProt H6D5H2)
# Test: AaDOP2 antagonist screen of the LOPAC1280 library (HEK-CRELuc-Aadop2 cells, luminescence)
# Assay type: cell-based
# Details: not given
# Chain of AaDOP2 (H6D5H2 1-476): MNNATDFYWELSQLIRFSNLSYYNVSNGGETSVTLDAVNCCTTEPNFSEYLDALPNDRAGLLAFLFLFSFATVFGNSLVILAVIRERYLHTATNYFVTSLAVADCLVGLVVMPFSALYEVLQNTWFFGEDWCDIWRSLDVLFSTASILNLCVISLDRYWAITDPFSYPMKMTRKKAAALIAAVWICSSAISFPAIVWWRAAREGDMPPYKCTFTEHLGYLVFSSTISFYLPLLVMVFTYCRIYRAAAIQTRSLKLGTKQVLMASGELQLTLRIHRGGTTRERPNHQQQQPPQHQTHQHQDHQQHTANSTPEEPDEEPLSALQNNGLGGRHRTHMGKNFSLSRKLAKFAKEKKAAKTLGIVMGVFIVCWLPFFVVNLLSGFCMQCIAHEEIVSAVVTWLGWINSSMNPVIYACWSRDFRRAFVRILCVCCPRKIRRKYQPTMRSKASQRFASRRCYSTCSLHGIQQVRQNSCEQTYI
row,Molecule,"Compound effect (percent receptor signaling in presence of test compound, relative lux units relative to the SCH23390 control)"
1,"O=c1[nH]c(=O)n([C@H]2C[C@H](O)[C@@H](CO)O2)cc1/C=C/Br [Compound 194, (E)-5-(2-Bromovinyl)-2'-deoxyuridine]",121
2,"Nc1ccc(CCN2CCN(c3cccc(C(F)(F)F)c3)CC2)cc1 [Compound 1130, PAPP]",66
3,"NC(=Nc1ccccc1)NC(=O)c1nc(Cl)c(N)nc1N [Compound 1020, Phenamil methanesulfonate]",46
4,"CN(N=O)c1cc(O)ccc1O [Compound 417, Dephostatin]",111
5,"CC(N)c1cccc(Cl)c1Cl.Cl (racemic) [Compound 448, (±)-2,3-Dichloro-alpha-methylbenzylamine hydrochloride]",84
6,"CCCC(C)(COC(N)=O)COC(=O)NC(C)C (stereo not shown) [Compound 312, Carisoprodol]",130
7,"O=C(O)C1=CC(=C(c2ccc(O)c(C(=O)O)c2)c2ccc(O)c(C(=O)O)c2)C=CC1=O [Compound 30, Aurintricarboxylic acid]",132
8,"CN1[C@@H]2CC[C@H]1C[C@@H](OC(c1ccccc1)c1ccccc1N)C2 (stereo partly shown) [Compound 125, Aminobenztropine]",30
9,"O=C(CCCN1CCC2(CC1)C(=O)NCN2c1ccccc1)c1ccc(F)cc1 [Compound 1107, Spiperone hydrochloride]",29
10,"O=c1[nH]c2ccccc2n1CCCN1CCN(C(c2ccccc2)c2ccccc2)CC1 [Compound 909, Oxatomide]",72
11,"CS(=O)(=O)O.Cc1c(C(=O)c2cccc3ccccc23)c2cccc3c2n1[C@H](CN1CCOCC1)CO3 [Compound 1264, (R)-(+)-WIN 55,212-2 mesylate]",58
12,"Nc1cc(=O)[nH]c(N)n1 [Compound 466, 2,6-Diamino-4-pyrimidinone]",114
13,"CCCCCCCCCCCCCCSCC(=O)O [Compound 1156, Tetradecylthioacetic acid]",101
14,R(-)-Propylnorapomorphine hydrochloride [Compound 436],99
15,"CNCCC=C1c2ccccc2CCc2ccccc21 [Compound 863, Nortriptyline hydrochloride]",4
16,"N=C(N)N1CCc2ccccc2C1 [Compound 361, Debrisoquin sulfate]",86
17,"CC(C)(Sc1ccc(CCN(CCCCC2CCCCC2)C(=O)NC2CCCCC2)cc1)C(=O)O [Compound 557, GW7647]",50
18,NS 521 oxalate [Compound 869],75
19,"C[N+](C)(C)CC#CCN1CCCC1=O [Compound 912, Oxotremorine methiodide]",99
20,"O=S1(=O)N(CCN2CC=C(c3c[nH]c4cc(F)ccc34)CC2)c2cccc3c2N1CCC3 [Compound 697, LY-367,265]",29
21,"CCCN(CCC)CCc1ccc(O)c(O)c1 [Compound 439, Dipropyldopamine hydrobromide]",106
22,"Cn1cnc2c(NC3CCCC3)ncnc21 [Compound 885, N6-Cyclopentyl-9-methyladenine]",105
23,"C=CC[N+](C)(C)c1ccc(CCC(=O)CCc2ccc([N+](C)(C)CC=C)cc2)cc1.[Br-].[Br-] [Compound 100, BW 284c51]",93

row,Molecule,"Compound effect (percent receptor signaling in presence of test compound, relative lux units relative to the SCH23390 control)"
1,"OCCN1CCN(CCCN2c3ccccc3Sc3ccc(Cl)cc32)CC1 [Compound 957, Perphenazine]",5
2,"CC(=O)[C@H]1CC[C@H]2[C@@H]3CCC4=CC(=O)CC[C@]4(C)[C@H]3CC[C@]12C [Compound 914, Progesterone]",77
3,"CCc1ccccc1OC[C@@H](O)CN[C@H]1CCCc2ccccc21.O=C(O)C(=O)O [Compound 1122, SR 59230A oxalate]",75
4,"CC(C)c1cccc(C(C)C)c1O [Compound 452, Propofol]",94
5,"Cl.NCCCCC(=O)O [Compound 4, 5-Aminovaleric acid hydrochloride]",115
6,SB 224289 hydrochloride [Compound 1142],95
7,"Nc1ncnc2c1ncn2C1CCCC1 [Compound 260, 9-cyclopentyladenine]",116
8,"Oc1ccc(Cn2ccnc2S)cc1 [Compound 595, 1-(4-Hydroxybenzyl)imidazole-2-thiol]",63
9,"CSC(N)=NCCC[C@H](N)C(=O)O [Compound 774, S-Methyl-L-thiocitrulline acetate]",97
10,"OC[C@H]1O[C@@H](n2cnc3c(NC4CCCC4)ncnc32)[C@H](O)[C@@H]1O [Compound 303, N6-Cyclopentyladenosine]",89
11,"C[N+](C)(C)CC=O [Compound 171, Betaine aldehyde chloride]",99
12,"Seglitide [Compound 1079, reference compound]",102
13,"Cc1c2ccncc2c(C)c2c1[nH]c1ccccc12 [Compound 486, Ellipticine]",98
14,"C[C@@H]1C(=O)NC2=Nc3cccc(Cl)c3CN21 [Compound 1034, Quazinone]",108
15,"NC(=O)c1ccc(OCC(O)CN2CC=C(c3ccc(F)cc3)CC2)cc1 (stereo not shown) [Compound 1057, Ro 8-4304]",115
16,"O=c1c2ccccc2[nH]c(=S)n1CCN1CCC(=C(c2ccc(F)cc2)c2ccc(F)cc2)CC1 [Compound 397, Diacylglycerol Kinase Inhibitor II]",74
17,"NCCSSCCN [Compound 294, Cystamine dihydrochloride]",84
18,"CC(=O)OCC(=O)[C@@]1(O)CC[C@H]2[C@@H]3CCC4=CC(=O)CC[C@]4(C)[C@H]3C(=O)C[C@@]21C [Compound 244, Cortisone 21-acetate]",110
19,"Cn1c(=O)c2[nH]cnc2n(C)c1=O.Cn1c(=O)c2[nH]cnc2n(C)c1=O.NCCN [Compound 26, Aminophylline ethylenediamine]",129
20,"O=C(NCCNCC(O)COc1ccc(O)cc1)N1CCOCC1 (stereo not shown) [Compound 1270, Xamoterol hemifumarate]",112
21,"CC[C@@H]1C(=O)OC[C@@H]1Cc1cncn1C [Compound 960, Pilocarpine nitrate]",96
22,"CC(C)NC(C)Cc1ccc(I)cc1 (stereo not shown) [Compound 670, Iofetamine hydrochloride]",90
23,"O=c1c(O)c(-c2ccc(O)cc2O)oc2cc(O)cc(O)c12 [Compound 766, Morin]",117

# Same assay, conditions: 10 µM compound, 300 nM dopamine, 2 hr; hit = compound effect <20
row,Molecule,"Compound effect (percent receptor signaling in presence of test compound, relative lux units relative to the SCH23390 control)"
1,"N[C@@H](Cn1ccc(=O)[nH]c1=O)C(=O)O [Compound 1266, S(-)-Willardiine]",99%
2,"Br.CCCN(CCC)C1CCc2ccc(O)cc2C1 (racemic) [Compound 606, (±)-7-Hydroxy-DPAT hydrobromide]",62%
3,"Cl.Cn1ccc2cc(NC(=O)Nc3cccnc3)ccc21 [Compound 135, SB 200646 hydrochloride]",106%
4,"N/C(=N\C(=O)c1nc(Cl)c(N)nc1N)NCc1ccc(Cl)c(Cl)c1 [Compound 418, 3',4'-Dichlorobenzamil]",73%
5,"CC(C)NNC(=O)c1ccncc1.O=P(O)(O)O [Compound 657, Iproniazid phosphate]",97%
6,"Cl.N[C@@H](CCC(=O)O)C(=O)O [Compound 549, L-Glutamic acid hydrochloride]",93%
7,"Cl.O[Si](CCCN1CCCCC1)(c1ccc(F)cc1)C1CCCCC1 (stereo not shown) [Compound 621, Hexahydro-sila-difenidol hydrochloride, p-fluoro analog]",73%

# Same assay, conditions: read-out: % of the SCH23390 effect (percent inhibition of receptor response relative to the SCH23390 control)
row,Molecule,inhibition at 10 µM
1,"CNCCC=C1c2ccccc2CCc2ccccc21 [Compound 863, Nortriptyline hydrochloride]",96%
2,"OCCN1CCN(CCCN2c3ccccc3Sc3ccc(Cl)cc32)CC1 [Compound 957, Perphenazine]",95%
